What was measured:
PC12 cells = assay: MTT assay, β-amyloid 25-35 toxicity in PC12 cells; type: cell-based, rat; conditions: 5 μM β-amyloid 25-35, 6 hours; 10 μM-1 nM
Description: The 3-(4,5-dimethylthiazol-2-yl)-2,5-diphenyl-tetrazolium bromide (MTT) assay measures changes that occur within the cells, involving mitochondria activation, indicative of a process that eventually leads to cell death (Fagarasan et al., Mol. Psychiat. 1996, 1:398-403). This assay is a specific, early indicator of the mechanism of β-amyloid-mediated cell death (Shearman et al., PNAS USA 1994, 91:1470-74). This assay was used to evaluate compounds of formulae I and II. Rat pheochromocytoma (PC12) cells were plated in 96 well plate at a density of 10,000 cells/well, and maintained in Dulbecco's modified Eagle medium (Gibco, Cat. 21969) supplemented with 5% fetal bovine serum (Biological Industries, Cat. 04-121-1A), 10% heat-inactivated horse serum (Gibco Cat. 26050), L-Glutamine 200 mM (Biological Industries, Cat. 03-020-1C), Penicillin 10000 U/ml (Biological Industries, Cat 03-031-1C), and Amphotericin B 50 mg/ml (Biological Industries, Cat. 01-029-1C). The next day the medium was refreshed with serum free media and cells were treated with 5 μM β-amyloid 25-35 (H-1192.0001, Bachem) in the presence or absence of the test compound. Compounds were tested for 6 hours, respectively, at final concentrations ranging between 0.1 nM to 100 μM. 3-Indolepropionic acid (3-IPA, Cat. 220027, Sigma Aldrich) served as a reference antioxidant.

M1 mAChR [1] = target: T1, M1 mAChR (Homo sapiens, UniProt P11229); assay: Intracellular Ca2+ mobilization (Fluo-4 NW) in cells stably transfected with M1 mAChR; type: cell-based; set-up: expressed in transfected cells; conditions: 100 μM; mobilization of intracellular Ca ions
T1 sequence (P11229 1-460): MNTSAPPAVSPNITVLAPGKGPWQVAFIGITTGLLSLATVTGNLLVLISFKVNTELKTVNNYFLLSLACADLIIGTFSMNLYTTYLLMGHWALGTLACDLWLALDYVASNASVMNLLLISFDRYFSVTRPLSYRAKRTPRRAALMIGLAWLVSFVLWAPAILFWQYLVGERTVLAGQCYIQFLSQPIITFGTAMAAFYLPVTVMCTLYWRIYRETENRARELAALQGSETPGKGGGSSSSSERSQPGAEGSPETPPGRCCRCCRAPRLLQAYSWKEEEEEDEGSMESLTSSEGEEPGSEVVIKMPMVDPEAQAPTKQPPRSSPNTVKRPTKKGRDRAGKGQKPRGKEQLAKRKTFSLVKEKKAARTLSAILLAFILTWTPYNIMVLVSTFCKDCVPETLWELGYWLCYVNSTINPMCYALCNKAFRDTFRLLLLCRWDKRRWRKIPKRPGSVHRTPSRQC
Description: On the day of experiment, cells were fully confluent.
To evaluate selectivity for a subtype of mAChR, in particular the M1 mAChR vs. M3 and MS mAChR, the assays were calibrated using ligands that have a combined activity, e.g. M1 agonistic and M3 antagonistic or M1 agonistic and MS antagonistic profiles, respectively. This can eliminate effects due to different receptor reserves in cell-based assays.

M1 mAChR [2] = target: T1, M1 mAChR; assay: αAPPs secretion in CHO cells double transfected with human APP695 and human M1 mAChR; type: cell-based
Protocol: (§1) α-APPs Secretion studies following incubation with the tested compounds were performed as described in Haring, et al. J. Neurochem., 1998, 71:2094-103. […] A day later, cells were washed twice with serum free media, and treated with the test compound at various concentrations ranging from 0.1 nM to 100 μM. […] After 1 hour the conditioned medium was collected to cold Eppendorf tubes, which included a protease inhibitor cocktail (0.1 mM phenylmethylsulphonyl fluoride (PMSF); 5 μg/ml leupeptin; 5 μg/ml pepstatin and 5 units/ml aprotinin) for determining αAPPs release. The protein content of each sample was concentrated using Centricon tubes (Amicon, Beverly, Mass.). […] CHO cells double transfected with human APP695 and M1 mAChR APPs bands were probed using anti-amyloid beta protein (1:1000, monoclonal 6E10 antibody, MAB1560, Chemicon) and peroxidase-linked rabbit anti mouse IgG (1:5,000; Jackson Immuno Research, PA). PC12 cells stably transfected with M1 mAChR APPs bands were probed using the anti-Alzheimer precursor protein A4 (1:4,000; monoclonal 22C11 antibody, Boehringer Mannheim) and the peroxidase-linked rabbit anti mouse IgG (1:20,000; Jackson Immuno Research, PA). Following extensive washout, the membranes were treated with Western Lightning Chemiluminescence Reagent Plus (PerkinElmer Life Sciences, MA) followed by exposure to SuperRX film (Fuji Medical X-ray film, Tokyo, Japan). Quantitative determination of the total APPs bands was performed by Scion Image program (NIH, Bethesda, USA). Samples of control and CCh were assayed in parallel and thus enabled compilation of data from separate experiments.

rat M1 mAChR = target: T2, rat M1 mAChR (Rattus norvegicus, UniProt P08482); assay: αAPPs secretion in PC12 cells stably transfected with rat M1 mAChR; type: cell-based; conditions: 0.1 nM to 1 μM, not observed in untransfected PC12
T2 construct: expressed in transfected cells; host or cells: rat pheochromocytoma PC12 cells
Protocol: as §1, with “Following extensive washout, the membranes were treated with Western Lightning Chemiluminescence Reagent Plus (PerkinElmer Life Sciences, MA) followed by exposure to SuperRX film (Fuji Medical X-ray film, Tokyo, Japan).” left out, “Samples of control and CCh were assayed in parallel and thus enabled compilation of data from separate experiments.” left out

M1 mAChR [3] = target: T1, M1 mAChR

T2 sequence (P08482 whole entry): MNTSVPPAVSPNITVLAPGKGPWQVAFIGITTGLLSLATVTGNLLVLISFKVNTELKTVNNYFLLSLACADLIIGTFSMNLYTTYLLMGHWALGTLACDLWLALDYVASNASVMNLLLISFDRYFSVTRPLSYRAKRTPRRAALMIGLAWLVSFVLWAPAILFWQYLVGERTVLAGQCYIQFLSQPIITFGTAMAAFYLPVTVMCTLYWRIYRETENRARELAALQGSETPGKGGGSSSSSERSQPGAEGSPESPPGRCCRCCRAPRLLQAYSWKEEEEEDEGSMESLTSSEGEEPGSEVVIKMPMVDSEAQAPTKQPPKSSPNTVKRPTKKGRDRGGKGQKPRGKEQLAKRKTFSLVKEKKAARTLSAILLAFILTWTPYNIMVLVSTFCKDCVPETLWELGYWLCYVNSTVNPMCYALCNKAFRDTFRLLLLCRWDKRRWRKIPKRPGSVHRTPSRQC

SMILES | protection against toxicity induced by Aβ25-35 (MTT) (PC12 cells) | M1 agonist at 100 μM vs. carbachol (full muscarinic agonist, 100%) (M1 mAChR [1]) | release of αAPPs (M1 mAChR [2]; CHO cells, 0.1 nM to 1 μM) | maximal αAPPs secretion in comparison to untreated control cells (M1 mAChR [2]; doubly-transfected CHO cells, AF710B at 0.01 μM, AF710 at 0.1 μM, AF710A at 1 μM) | release of αAPPs (rat M1 mAChR) | effect of brucine pre-incubation on elevation of intracellular calcium ions (M1 mAChR [3])
CC1OC2(CCN(C)CC2)CN1C(=O)CCc1c[nH]c2ccccc12 (racemic) [AF711, 1-(2,8-dimethyl-1-oxa-3,8-diazaspiro[4.5]dec-3-yl)-3-(1H-indol-3-yl)-propan-1-one] | protected cells | 19% | – | – | – | –
O=C(O)CCc1c[nH]c2ccccc12 [3-IPA, 3-Indolepropionic acid, reference compound] | protected cells | – | – | – | – | –
CC1SC2(CCN(C)CC2)CN1C(=O)CCc1c[nH]c2ccccc12 (racemic) [AF710, 1-(2,8-dimethyl-1-thia-3,8-diazaspiro[4.5]dec-3-yl)-3-(1H-indol-3-yl) propan-1-one] | protected cells | 40% | enhanced the release of αAPPs | 175% | enhanced the release of αAPPs | no such effect

From patent US9034891B2, “Bicyclic heterocyclic spiro compounds” (ISRAEL INSTITUTE FOR BIOLOGICAL RESEARCH, priority 2009, dated 2015)
